From US20230085307A1, “PYRIDAZINONE COMPOUND AND HERBICIDE” (NISSAN CHEMICAL CORPORATION, priority 2019, published 2023)

Columns and labels:
[1] = system: wild oat; assay: Test Example 5: herbicidal effect by foliage application, plastic box (Table 20, symbol I); format: in vivo, wild oat (Avena fatua); details: foliage application, 320 g/ha, 3 weeks after application
In short: (§1)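 Post-emergence foliar test in sterilized diluvial soil. Compound applied as water-diluted emulsion at a predetermined rate to 14-day-old plants; evaluation at three weeks.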

[2] = system: blackgrass; assay: Test Example 4: herbicidal effect by soil treatment (Table 19, symbol J); format: in vivo, blackgrass (Alopecurus myosuroides); details: for herbicidal effect, J: blackgrass: amount of applied herbicide 320 g/ha
In short: (§2)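 Emulsion of test compound, water-diluted to predetermined amount, sprayed on soil after sowing (seed depth ~1.5 cm, sterilized diluvial soil). Greenhouse, 25–30° C. Effect graded at three weeks post-spray.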

[3] = system: chickweed; assay: Test Example 4: herbicidal effect by soil treatment (Table 19, symbol P); format: in vivo, common chickweed (Stellaria media); details: for herbicidal effect, P: chickweed: amount of applied herbicide 320 g/ha
In short: as §2

[4] = system: blackgrass; assay: Test Example 5: herbicidal effect by foliage application, plastic box (Table 20, symbol J); format: in vivo, blackgrass (Alopecurus myosuroides); details: foliage application, 320 g/ha, 3 weeks after application
In short: as §1

[5] = system: lambsquarters; assay: Test Example 4: herbicidal effect by soil treatment (Table 19, symbol O); format: in vivo, lambsquarters (Chenopodium album); details: for herbicidal effect, O: lambsquarters: amount of applied herbicide 320 g/ha
In short: as §2

[6] = system: green foxtail; assay: Test Example 4: herbicidal effect by soil treatment (Table 19, symbol G); format: in vivo, green foxtail (Setaria viridis); details: for herbicidal effect, G: green foxtail: amount of applied herbicide 320 g/ha
In short: as §2

[7] = system: windgrass; assay: Test Example 4: herbicidal effect by soil treatment (Table 19, symbol L); format: in vivo, windgrass (Apera spica-venti); details: for herbicidal effect, L: windgrass: amount of applied herbicide 320 g/ha
In short: as §2

[8] = system: velvetleaf; assay: Test Example 4: herbicidal effect by soil treatment (Table 19, symbol M); format: in vivo, velvetleaf (Abutilon theophrasti); details: for herbicidal effect, M: velvetleaf: amount of applied herbicide 320 g/ha
In short: as §2

[9] = system: redroot pigweed; assay: Test Example 4: herbicidal effect by soil treatment (Table 19, symbol N); format: in vivo, redroot pigweed (Amaranthus retroflexus); details: for herbicidal effect, N: redroot pigweed: amount of applied herbicide 320 g/ha
In short: as §2

[10] = system: barnyard grass; assay: Test Example 4: herbicidal effect by soil treatment (Table 19, symbol H); format: in vivo, barnyard grass (Echinochloa crus-galli); details: for herbicidal effect, H: barnyard grass: amount of applied herbicide 320 g/ha
In short: as §2

[11] = system: persian speedwell; assay: Test Example 4: herbicidal effect by soil treatment (Table 19, symbol R); format: in vivo, Persian speedwell (Veronica persica); details: for herbicidal effect, R: persian speedwell: amount of applied herbicide 320 g/ha
In short: as §2

[12] = system: Italian ryegrass; assay: Test Example 5: herbicidal effect by foliage application, plastic box (Table 20, symbol K); format: in vivo, Italian ryegrass (Lolium multiflorum); details: foliage application, 320 g/ha, 3 weeks after application
In short: as §1

[13] = system: Chinese sprangletop; assay: Test Example 3: herbicidal effect by foliage application, Wagner pot (Table 18, symbol D); format: in vivo, chinese sprangletop (Leptochloa chinensis); details: for herbicidal effect on D: Chinese sprangletop: amount of applied herbicide 320 g/ha
In short: (§3)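 Plants were sown in alluvial soil held under 0.1–0.5 cm standing water and grown 14 days in a greenhouse at 25–30 °C. An emulsifiable formulation, water-diluted to the set dose, was then sprayed onto the foliage, and effects were scored three weeks later using previously defined criteria.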

[14] = system: barnyard grass; assay: Test Example 5: herbicidal effect by foliage application, plastic box (Table 20, symbol H); format: in vivo, barnyard grass (Echinochloa crus-galli); details: foliage application, 320 g/ha, 3 weeks after application
In short: as §1

[15] = system: wild oat; assay: Test Example 4: herbicidal effect by soil treatment (Table 19, symbol I); format: in vivo, wild oat (Avena fatua); details: for herbicidal effect, I: wild oat: amount of applied herbicide 320 g/ha
In short: as §2

[16] = system: velvetleaf; assay: Test Example 5: herbicidal effect by foliage application, plastic box (Table 20, symbol M); format: in vivo, velvetleaf (Abutilon theophrasti); details: foliage application, 320 g/ha, 3 weeks after application
In short: as §1

[17] = system: green foxtail; assay: Test Example 5: herbicidal effect by foliage application, plastic box (Table 20, symbol G); format: in vivo, green foxtail (Setaria viridis); details: foliage application, 320 g/ha, 3 weeks after application
In short: as §1

[18] = system: southern crabgrass; assay: Test Example 5: herbicidal effect by foliage application, plastic box (Table 20, symbol F); format: in vivo, southern crabgrass (Digitaria ciliaris); details: foliage application, 320 g/ha, 3 weeks after application
In short: as §1

[19] = system: persian speedwell; assay: Test Example 5: herbicidal effect by foliage application, plastic box (Table 20, symbol R); format: in vivo, Persian speedwell (Veronica persica); details: foliage application, 320 g/ha, 3 weeks after application
In short: as §1

[20] = system: lambsquarters; assay: Test Example 5: herbicidal effect by foliage application, plastic box (Table 20, symbol O); format: in vivo, lambsquarters (Chenopodium album); details: foliage application, 320 g/ha, 3 weeks after application
In short: as §1

[21] = system: windgrass; assay: Test Example 5: herbicidal effect by foliage application, plastic box (Table 20, symbol L); format: in vivo, windgrass (Apera spica-venti); details: foliage application, 320 g/ha, 3 weeks after application
In short: as §1

[22] = system: southern crabgrass; assay: Test Example 4: herbicidal effect by soil treatment (Table 19, symbol F); format: in vivo, southern crabgrass (Digitaria ciliaris); details: for herbicidal effect, F: southern crabgrass: amount of applied herbicide 320 g/ha
In short: as §2

[23] = system: rice flat sedge; assay: Test Example 3: herbicidal effect by foliage application, Wagner pot (Table 18, symbol E); format: in vivo, rice flat sedge (Cyperus iria); details: for herbicidal effect on E: rice flat sedge: amount of applied herbicide 320 g/ha
In short: as §3

[24] = system: Italian ryegrass; assay: Test Example 4: herbicidal effect by soil treatment (Table 19, symbol K); format: in vivo, Italian ryegrass (Lolium multiflorum); details: for herbicidal effect, K: Italian ryegrass: amount of applied herbicide 320 g/ha
In short: as §2

[25] = system: barnyard grass; assay: Test Example 3: herbicidal effect by foliage application, Wagner pot (Table 18, symbol H); format: in vivo, barnyard grass (Echinochloa crus-galli); details: for herbicidal effect on H: barnyard grass: amount of applied herbicide 320 g/ha
In short: as §3

CCCC(=O)Oc1c(OC)nn(C)c(=O)c1-c1c(-c2cc3ccccc3s2)sc2ccccc12 [1-197]
effect on wild oat (I) [1]: 0 (Herbicidal rate of 5% or less (almost no effect))
J: blackgrass, herbicidal effect rating ([2]; AAH 320 g/ha): 0 (Herbicidal rate of 5% or less (almost no effect))
P: chickweed, herbicidal effect rating ([3]; AAH 320 g/ha): 5 (Herbicidal rate of 90% or more (almost completely withered))
effect on blackgrass (J) [4]: 0 (Herbicidal rate of 5% or less (almost no effect))
O: lambsquarters, herbicidal effect rating ([5]; AAH 320 g/ha): 0 (Herbicidal rate of 5% or less (almost no effect))
G: green foxtail, herbicidal effect rating ([6]; AAH 320 g/ha): 0 (Herbicidal rate of 5% or less (almost no effect))
L: windgrass, herbicidal effect rating ([7]; AAH 320 g/ha): 0 (Herbicidal rate of 5% or less (almost no effect))
M: velvetleaf, herbicidal effect rating ([8]; AAH 320 g/ha): 0 (Herbicidal rate of 5% or less (almost no effect))
N: redroot pigweed, herbicidal effect rating ([9]; AAH 320 g/ha): 0 (Herbicidal rate of 5% or less (almost no effect))
H: barnyard grass, herbicidal effect rating ([10]; AAH 320 g/ha): 0 (Herbicidal rate of 5% or less (almost no effect))
R: persian speedwell, herbicidal effect rating ([11]; AAH 320 g/ha): 5 (Herbicidal rate of 90% or more (almost completely withered))
effect on Italian ryegrass (K) [12]: 0 (Herbicidal rate of 5% or less (almost no effect))
herbicidal effect on D (Chinese sprangletop), rating 0-5 ([13]; 320 g/ha): 2 (Herbicidal rate of 20% or more and less than 40%)
effect on barnyard grass (H) [14]: 0 (Herbicidal rate of 5% or less (almost no effect))
I: wild oat, herbicidal effect rating ([15]; AAH 320 g/ha): 0 (Herbicidal rate of 5% or less (almost no effect))
effect on velvetleaf (M) [16]: 3 (Herbicidal rate of 40% or more and less than 70%)
effect on green foxtail (G) [17]: 1 (Herbicidal rate of 5% or more and less than 20%)
effect on southern crabgrass (F) [18]: 0 (Herbicidal rate of 5% or less (almost no effect))
effect on persian speedwell (R) [19]: 5 (Herbicidal rate of 90% or more (almost completely withered))
effect on lambsquarters (O) [20]: 1 (Herbicidal rate of 5% or more and less than 20%)
effect on windgrass (L) [21]: 0 (Herbicidal rate of 5% or less (almost no effect))
F: southern crabgrass, herbicidal effect rating ([22]; AAH 320 g/ha): 0 (Herbicidal rate of 5% or less (almost no effect))
herbicidal effect on E (rice flat sedge), rating 0-5 ([23]; 320 g/ha): 4 (Herbicidal rate of 70% or more and less than 90%)
K: Italian ryegrass, herbicidal effect rating ([24]; AAH 320 g/ha): 0 (Herbicidal rate of 5% or less (almost no effect))
herbicidal effect on H (barnyard grass), rating 0-5 ([25]; 320 g/ha): 4 (Herbicidal rate of 70% or more and less than 90%)

CCCC(=O)Oc1c(C)nn(C)c(=O)c1-c1c(-c2ccc(OC)cc2F)sc2ccc(F)cc12 [2-365]
herbicidal effect, J: blackgrass [2]: 0 (Herbicidal rate of 5% or less (almost no effect))
herbicidal effect, P: chickweed [3]: 0 (Herbicidal rate of 5% or less (almost no effect))
herbicidal effect, O: lambsquarters [5]: 1 (Herbicidal rate of 5% or more and less than 20%)
herbicidal effect, G: green foxtail [6]: 0 (Herbicidal rate of 5% or less (almost no effect))
herbicidal effect, L: windgrass [7]: 0 (Herbicidal rate of 5% or less (almost no effect))
herbicidal effect, M: velvetleaf [8]: 0 (Herbicidal rate of 5% or less (almost no effect))
herbicidal effect, N: redroot pigweed [9]: 3 (Herbicidal rate of 40% or more and less than 70%)
herbicidal effect, H: barnyard grass [10]: 0 (Herbicidal rate of 5% or less (almost no effect))
herbicidal effect, R: persian speedwell [11]: 0 (Herbicidal rate of 5% or less (almost no effect))
herbicidal effect on D: Chinese sprangletop [13]: 5 (Herbicidal rate of 90% or more (almost completely withered))
herbicidal effect, I: wild oat [15]: 0 (Herbicidal rate of 5% or less (almost no effect))
herbicidal effect, F: southern crabgrass [22]: 0 (Herbicidal rate of 5% or less (almost no effect))
herbicidal effect on E: rice flat sedge [23]: 5 (Herbicidal rate of 90% or more (almost completely withered))
herbicidal effect, K: Italian ryegrass [24]: 0 (Herbicidal rate of 5% or less (almost no effect))
herbicidal effect on H: barnyard grass [25]: 4 (Herbicidal rate of 70% or more and less than 90%)

COc1ccc(F)c(-c2sc3ccc(F)cc3c2-c2c(O)c(C)nn(C)c2=O)c1 [2-366]
herbicidal effect, J: blackgrass [2]: 2 (Herbicidal rate of 20% or more and less than 40%)
herbicidal effect, P: chickweed [3]: 3 (Herbicidal rate of 40% or more and less than 70%)
herbicidal effect, O: lambsquarters [5]: 2 (Herbicidal rate of 20% or more and less than 40%)
herbicidal effect, G: green foxtail [6]: 0 (Herbicidal rate of 5% or less (almost no effect))
herbicidal effect, L: windgrass [7]: 0 (Herbicidal rate of 5% or less (almost no effect))
herbicidal effect, M: velvetleaf [8]: 0 (Herbicidal rate of 5% or less (almost no effect))
herbicidal effect, N: redroot pigweed [9]: 4 (Herbicidal rate of 70% or more and less than 90%)
herbicidal effect, H: barnyard grass [10]: 0 (Herbicidal rate of 5% or less (almost no effect))
herbicidal effect, R: persian speedwell [11]: 3 (Herbicidal rate of 40% or more and less than 70%)
herbicidal effect on D: Chinese sprangletop [13]: 0 (Herbicidal rate of 5% or less (almost no effect))
herbicidal effect, I: wild oat [15]: 0 (Herbicidal rate of 5% or less (almost no effect))
herbicidal effect, F: southern crabgrass [22]: 3 (Herbicidal rate of 40% or more and less than 70%)
herbicidal effect on E: rice flat sedge [23]: 3 (Herbicidal rate of 40% or more and less than 70%)
herbicidal effect, K: Italian ryegrass [24]: 4 (Herbicidal rate of 70% or more and less than 90%)
herbicidal effect on H: barnyard grass [25]: 3 (Herbicidal rate of 40% or more and less than 70%)

Cc1nn(C)c(=O)c(-c2c(-c3cnccc3F)sc3ccc(F)cc23)c1O [2-383]
herbicidal effect, J: blackgrass [2]: 4 (Herbicidal rate of 70% or more and less than 90%)
herbicidal effect, P: chickweed [3]: 4 (Herbicidal rate of 70% or more and less than 90%)
herbicidal effect, O: lambsquarters [5]: 4 (Herbicidal rate of 70% or more and less than 90%)
herbicidal effect, G: green foxtail [6]: 4 (Herbicidal rate of 70% or more and less than 90%)
herbicidal effect, L: windgrass [7]: 3 (Herbicidal rate of 40% or more and less than 70%)
herbicidal effect, M: velvetleaf [8]: 4 (Herbicidal rate of 70% or more and less than 90%)
herbicidal effect, N: redroot pigweed [9]: 5 (Herbicidal rate of 90% or more (almost completely withered))
herbicidal effect, H: barnyard grass [10]: 3 (Herbicidal rate of 40% or more and less than 70%)
herbicidal effect, R: persian speedwell [11]: 5 (Herbicidal rate of 90% or more (almost completely withered))
herbicidal effect on D: Chinese sprangletop [13]: 5 (Herbicidal rate of 90% or more (almost completely withered))
herbicidal effect, I: wild oat [15]: 3 (Herbicidal rate of 40% or more and less than 70%)
herbicidal effect, F: southern crabgrass [22]: 4 (Herbicidal rate of 70% or more and less than 90%)
herbicidal effect on E: rice flat sedge [23]: 5 (Herbicidal rate of 90% or more (almost completely withered))
herbicidal effect, K: Italian ryegrass [24]: 4 (Herbicidal rate of 70% or more and less than 90%)
herbicidal effect on H: barnyard grass [25]: 5 (Herbicidal rate of 90% or more (almost completely withered))
